These results are taken from paper PMC8382989 (Biochemistry, 2013).

Series [1] has as its target T1, human RNR subunit α (H-α) (Homo sapiens, UniProt P23921).
T1 sequence (P23921 1-792): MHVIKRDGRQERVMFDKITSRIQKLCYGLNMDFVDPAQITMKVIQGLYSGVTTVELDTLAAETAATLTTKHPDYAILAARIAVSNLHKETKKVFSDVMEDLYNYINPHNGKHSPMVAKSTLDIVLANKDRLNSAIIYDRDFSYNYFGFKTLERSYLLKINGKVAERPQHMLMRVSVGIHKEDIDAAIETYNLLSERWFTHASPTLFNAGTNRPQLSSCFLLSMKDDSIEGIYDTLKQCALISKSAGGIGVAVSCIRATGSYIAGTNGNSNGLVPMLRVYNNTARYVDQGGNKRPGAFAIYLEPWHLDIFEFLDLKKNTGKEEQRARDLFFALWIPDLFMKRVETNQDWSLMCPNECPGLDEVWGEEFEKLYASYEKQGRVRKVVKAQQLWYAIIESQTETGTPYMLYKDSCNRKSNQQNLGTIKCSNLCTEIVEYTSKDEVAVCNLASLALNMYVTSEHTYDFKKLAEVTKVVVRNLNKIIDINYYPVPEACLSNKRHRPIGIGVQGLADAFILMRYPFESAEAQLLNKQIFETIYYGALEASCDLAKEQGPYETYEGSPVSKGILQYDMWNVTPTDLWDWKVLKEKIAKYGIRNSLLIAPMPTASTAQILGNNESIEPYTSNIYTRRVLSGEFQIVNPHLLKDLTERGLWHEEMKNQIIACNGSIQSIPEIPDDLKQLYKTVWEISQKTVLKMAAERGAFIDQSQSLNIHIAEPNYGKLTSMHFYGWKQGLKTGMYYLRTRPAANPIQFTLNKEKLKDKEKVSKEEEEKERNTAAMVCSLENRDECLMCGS
The series can be described thus: CDP reductase activity titration with dATP. Type of series: biochemical.

Series [2] has as its target T2, human RNR subunit α, N-terminal domain alone (H-NTD) (Homo sapiens, UniProt P23921).
T2 sequence (P23921 1-91): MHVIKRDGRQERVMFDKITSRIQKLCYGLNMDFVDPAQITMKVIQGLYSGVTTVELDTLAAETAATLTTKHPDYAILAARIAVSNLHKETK
The series can be described thus: fluorescence anisotropy titration. Type of series: binding. On the technique in general: In fluorescence polarisation assays a small probe gives low polarisation when free and higher when bound to something large.

Series [3] deals with E. coli RNR subunit α, catalytic body alone (E-CB) (Escherichia coli, UniProt P00452). The series can be described thus: fluorescence anisotropy titration. The format is binding.
Sequence of E. coli RNR subunit α, catalytic body alone (E-CB) (P00452 94-761): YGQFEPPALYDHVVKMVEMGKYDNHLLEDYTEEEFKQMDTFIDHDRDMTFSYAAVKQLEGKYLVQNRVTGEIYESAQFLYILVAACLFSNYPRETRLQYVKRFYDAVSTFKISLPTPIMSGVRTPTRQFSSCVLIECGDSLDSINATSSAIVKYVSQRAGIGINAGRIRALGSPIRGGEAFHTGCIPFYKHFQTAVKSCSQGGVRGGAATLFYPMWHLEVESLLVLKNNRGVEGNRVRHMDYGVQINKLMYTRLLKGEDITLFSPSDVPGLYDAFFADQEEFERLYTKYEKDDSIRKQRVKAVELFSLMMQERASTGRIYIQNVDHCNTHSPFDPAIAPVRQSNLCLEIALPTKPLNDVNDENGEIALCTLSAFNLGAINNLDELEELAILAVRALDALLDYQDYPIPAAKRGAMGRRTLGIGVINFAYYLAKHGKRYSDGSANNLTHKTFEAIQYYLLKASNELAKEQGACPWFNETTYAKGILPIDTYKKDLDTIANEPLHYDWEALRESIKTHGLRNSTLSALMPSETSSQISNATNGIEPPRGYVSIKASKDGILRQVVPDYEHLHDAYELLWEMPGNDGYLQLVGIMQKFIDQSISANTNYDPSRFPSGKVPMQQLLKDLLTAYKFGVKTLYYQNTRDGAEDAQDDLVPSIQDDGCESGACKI
Series [4] concerns the molecule itself. Put plainly: SEC. For orientation: SEC sorts molecules by how far they enter the pores of the column.
Series [5] deals with the molecule itself. The series can be described thus: SEC. This is another data set of the same source.

Numbering of substitutions follows the chain as printed. Numbers in names are those of the source. Read-outs that look alike come from different tables or passages of the source.

For `Nc1ncnc2c1ncn2[C@H]1C[C@H](O)[C@@H](COP(=O)(O)OP(=O)(O)OP(=O)(O)O)O1` [dATP], in series [1], the EC50 amounted to 33 ± 7 µM.
In the case of Texas Red-5-dATP, the results for the Kd in series [2] and in series [3] were 153 ± 19 µM and 5.3 ± 0.3 µM, respectively.

B1: human ribonucleotide reductase subunit α (enzyme, UniProt P23921 1-792, looked up)
chain: T1 sequence (P23921 1-792)
Turning to B1, the “stoichiometry N” value in the series “SEC [4]” stood at 6.

B2: human D57N-α (point mutant of human RNR subunit α) (enzyme, UniProt P23921 1-792, looked up)
chain: T1 sequence (P23921 1-792) with D57N
As for B2, in “SEC [4]”, the “stoichiometry N” value is 2.

B3: E. coli ribonucleotide reductase subunit β (enzyme)
chain: AYTTFSQTKNDQLKEPMFFGQPVNVARYDQQKYDIFEKLIEKQLSFFWRPEEVDVSRDRIDYQALPEHEKHIFISNLKYQTLLDSIQGRSPNVALLPLISIPELETWVETWAFSETIHSRSYTHIIRNIVNDPSVVFDDIVTNEQIQKRAEGISSYYDELIEMTSYWHLLGEGTHTVNGKTVTVSLRELKKKLYLCLMSVNALEAIRFYVSFACSFAFAERELMEGNAKIIRLIARDEALHLTGTQHMLNLLRSGADDPEMAEIAEECKQECYDLFVQAAQQEKDWADYLFRDGSMIGLNKDILCQYVEYITNIRMQAVGLDLPFQTRSNPIPWINTWLVSDNVQVAPQEVEVSSYLVGQIDSEVDTDDLSNFQL
With B3, the “stoichiometry N” value in the series “SEC [5]” came out at 2.

By EC50 is commonly meant the concentration at which the effect is half-maximal. Low readings indicate an effect from little substance, high ones a need for much substance. The term Kd denotes the free concentration of one partner at which half of the binding sites on the other are occupied at equilibrium, for simple one-to-one binding. High values mean lower affinity, low ones higher affinity. One may read the stoichiometry N as a count of units in the complex or per binding partner.
